Test results published in patent US20240132431A1, “METHOD FOR ALKYLATING ACIDIC FUNCTIONAL GROUP” (Chugai Seiyaku Kabushiki Kaisha, priority 2021, published 2024).
One block for each compound: values may come before it.

Target: T1, Bcl-2 protein (Recombinant Human Bcl-2 Protein) (Homo sapiens, UniProt P10415)
T1 construct: purchased Novus NBP2-34889
Assay: Binding evaluation of mixture library compounds to Bcl-2 using AS-MS (affinity selection mass spectrometry)
Conditions: for ASMS ratio (%) n = 1: replicate n = 1; for ASMS ratio (%) n = 1 / ASMS ratio (%) n = 2: ASMS Ratio(%)=(A−C)/B×100; for ASMS ratio (%) n = 2: replicate n = 2
In short: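 Bcl-2 binding is scored from LC/MS signal retained with protein through gel-filtration spin columns, normalised to unfiltered and protein-free controls. Incubation: 20 μM protein, […] per compound, 1 h, 23° C.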

[1] = AS-MS on the mixture of 1200 library compounds
[2] = AS-MS, mixture of 1200 compounds, Bcl-2

T1 sequence (P10415 whole entry): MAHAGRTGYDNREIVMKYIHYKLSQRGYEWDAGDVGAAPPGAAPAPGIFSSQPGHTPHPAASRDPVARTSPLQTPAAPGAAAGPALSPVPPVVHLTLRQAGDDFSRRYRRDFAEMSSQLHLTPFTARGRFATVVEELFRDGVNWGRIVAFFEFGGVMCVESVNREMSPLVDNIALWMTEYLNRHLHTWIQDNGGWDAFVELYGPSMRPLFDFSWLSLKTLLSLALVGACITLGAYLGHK

ASMS ratio (%) n = 1 (AS-MS, mixture library, Bcl-2): 3.2% | ASMS ratio (%) n = 2 (AS-MS, mixture library, Bcl-2): 0.0%
Compound: CCOc1cncc(-c2ccc(CN3CCN(c4ccc(C(=O)NS(=O)(=O)CC56CC7CC(CC(C7)C5)C6)cc4)CC3)c3ccccc23)c1 [B2A066-01, N-(1-Adamantylmethylsulfonyl)-4-[4-[[4-(5-ethoxypyridin-3-yl)naphthalen-1-yl]methyl]piperazin-1-yl]benzamide]

ASMS ratio (%) n = 1 [1]: 1.5% | ASMS ratio (%) n = 2 [1]: 3.6%
Compound: CCOc1cncc(-c2ccccc2CN2CCN(c3ccc(C(=O)N(C)CC45CC6CC(CC(C6)C4)C5)cc3)CC2)c1 [B3A046-01, N-(1-Adamantylmethyl)-4-[4-[[2-(5-ethoxypyridin-3-yl)phenyl]methyl]piperazin-1-yl]-N-methylbenzamide]

ASMS ratio (%) n = 1 [2]: 0.0% | ASMS ratio (%) n = 2 [2]: 15.4%
Compound: CCOc1cccc(-c2ccc(CN3CCN(c4ccc(C(=O)NCC56CC7CC(CC(C7)C5)C6)nn4)CC3)c3ccccc23)c1 [B1A091-01, N-(1-Adamantylmethyl)-6-[4-[[4-(3-ethoxyphenyl)naphthalen-1-yl]methyl]piperazin-1-yl]pyridazine-3-carboxamide]

ASMS ratio (%) n = 1 (AS-MS, mixture library, Bcl-2): 23.4% | ASMS ratio (%) n = 2 (AS-MS, mixture library, Bcl-2): 11.4%
Compound: CCOc1cncc(-c2ccc(CN3CCN(c4ccc(C(=O)NS(=O)(=O)CC56CC7CC(CC(C7)C5)C6)nn4)CC3)c(CC)c2)c1 [B2A076-01, N-(1-Adamantylmethylsulfonyl)-6-[4-[[4-(5-ethoxypyridin-3-yl)-2-ethylphenyl]methyl]piperazin-1-yl]pyridazine-3-carboxamide]

ASMS ratio (%) n = 1 (AS-MS, mixture library, Bcl-2): 0.0% | ASMS ratio (%) n = 2 (AS-MS, mixture library, Bcl-2): 0.0%
Compound: CCOc1cncc(C#Cc2cncc(C(=O)N3CCN(c4ccc(C(=O)NS(=O)(=O)CC56CC7CC(CC(C7)C5)C6)nn4)CC3)c2)c1 [B2A010-01, N-(1-Adamantylmethylsulfonyl)-6-[4-[5-[2-(5-ethoxypyridin-3-yl)ethynyl]pyridine-3-carbonyl]piperazin-1-yl]pyridazine-3-carboxamide]

ASMS ratio (%) n = 1 [1]: 5.8% | ASMS ratio (%) n = 2 [1]: −0.2%
Compound: CCOc1cncc(-c2cc(CN3CCN(c4ccc(C(=O)N(C)CC56CC7CC(CC(C7)C5)C6)nn4)CC3)cc(OC(F)(F)F)c2)c1 [B3A090-01, N-(1-Adamantylmethyl)-6-[4-[[3-(5-ethoxypyridin-3-yl)-5-(trifluoromethoxy)phenyl]methyl]piperazin-1-yl]-N-methylpyridazine-3-carboxamide]

ASMS ratio (%) n = 1 [2]: −1.6% | ASMS ratio (%) n = 2 [2]: −4.7%
Compound: CCOc1cncc(-c2ccc(C(=O)N3CCN(c4ccc(C(=O)NCC56CC7CC(CC(C7)C5)C6)cc4)CC3)cc2F)c1 [B1A028-01, N-(1-Adamantylmethyl)-4-[4-[4-(5-ethoxypyridin-3-yl)-3-fluorobenzoyl]piperazin-1-yl]benzamide]

ASMS ratio (%) n = 1 (AS-MS, mixture library, Bcl-2): 14.3% | ASMS ratio (%) n = 2 (AS-MS, mixture library, Bcl-2): 21.9%
Compound: CCOc1cccc(-c2ccc(CN3CCN(c4ccc(C(=O)NS(=O)(=O)CC56CC7CC(CC(C7)C5)C6)nn4)CC3)cc2F)c1 [B2A077-01, N-(1-Adamantylmethylsulfonyl)-6-[4-[[4-(3-ethoxyphenyl)-3-fluorophenyl]methyl]piperazin-1-yl]pyridazine-3-carboxamide]

ASMS ratio (%) n = 1 [1]: 6.3% | ASMS ratio (%) n = 2 [1]: 2.5%
Compound: CCOc1cccc(-c2cc(CN3CCN(c4ccc(C(=O)N(C)CC56CC7CC(CC(C7)C5)C6)cc4)CC3)cc(OC(C)C)c2)c1 [B3A057-01, N-(1-Adamantylmethyl)-4-[4-[[3-(3-ethoxyphenyl)-5-propan-2-yloxyphenyl]methyl]piperazin-1-yl]-N-methylbenzamide]

More lines, now with the values behind:

Compound: CCOc1cccc(-c2ccccc2CCC(=O)N2CCN(c3ccc(C(=O)NS(=O)(=O)C(C)(C)C)cc3)CC2)c1 [B2L033-01, N-tert-Butylsulfonyl-4-[4-[3-[2-(3-ethoxyphenyl)phenyl]propanoyl]piperazin-1-yl]benzamide]
ASMS ratio (%) (n = 1): 0.0% | ASMS ratio (%) (n = 2): 0.0%

Compound: CCOc1cccc(-c2cnn(-c3cc(C(=O)N4CCN(c5ccc(C(=O)NS(=O)(=O)c6ccc(NCCSc7ccccc7)c(C(F)(F)F)c6)cc5)CC4)cc(C(F)(F)F)c3)c2)c1 [B2R043-01, 4-[4-[3-[4-(3-Ethoxyphenyl)pyrazol-1-yl]-5-(trifluoromethyl)benzoyl]piperazin-1-yl]-N-[4-(2-phenylsulfanylethylamino)-3-(trifluoromethyl)phenyl]sulfonylbenzamide]
ASMS ratio (%) (n = 1): 3.4% | ASMS ratio (%) (n = 2): −9.0%

Compound: CCOc1cccc(-c2csc(CN3CCN(c4ccc(C(=O)NS(=O)(=O)C(C)(C)C)nn4)CC3)c2)c1 [B2L093-01, N-tert-Butylsulfonyl-6-[4-[[4-(3-ethoxyphenyl)thiophen-2-yl]methyl]piperazin-1-yl]pyridazine-3-carboxamide]
ASMS ratio (%) (n = 2): 0.0%

Compound: CCOc1cccc(-c2cc(OC)c(CN3CCN(c4ccc(C(=O)NS(C)(=O)=O)nn4)CC3)c(OC)c2)c1 [B2I085-01, 6-[4-[[4-(3-Ethoxyphenyl)-2,6-dimethoxyphenyl]methyl]piperazin-1-yl]-N-methylsulfonylpyridazine-3-carboxamide]
ASMS ratio (%) (n = 1): 0.0% | ASMS ratio (%) (n = 2): 0.0%

Compound: CCOc1cncc(-c2ccccc2CN2CCN(c3ccc(C(=O)NS(=O)(=O)CCC(F)(F)F)cc3)CC2)c1 [B2N046-01, 4-[4-[[2-(5-Ethoxypyridin-3-yl)phenyl]methyl]piperazin-1-yl]-N-(3,3,3-trifluoropropylsulfonyl)benzamide]
ASMS ratio (%) (n = 1): 0.0% | ASMS ratio (%) (n = 2): −1.2%

Compound: CCOc1cncc(-c2ccc(C(C)N3CCN(c4ccc(C(=O)Nc5ccc(OC)cc5)cc4)CC3)cc2)c1 (stereo not drawn) [B1O098-01, 4-[4-[1-[4-(5-Ethoxypyridin-3-yl)phenyl]ethyl]piperazin-1-yl]-N-(4-methoxyphenyl)benzamide]
ASMS ratio (%) n = 1 [1]: −42.7% | ASMS ratio (%) n = 2 [1]: −0.2%

Compound: CCOc1cccc(-c2ccccc2CN2CCN(c3ccc(C(=O)N(CC)CC)cc3)CC2)c1 [B4J045-01, 4-[4-[[2-(3-Ethoxyphenyl)phenyl]methyl]piperazin-1-yl]-N,N-diethylbenzamide]
ASMS ratio (%) n = 1 [1]: 1.1% | ASMS ratio (%) n = 2 [1]: 0.3%

Compound: CCOc1cccc(-c2cc(CN3CCN(c4ccc(C(=O)NS(=O)(=O)c5ccc(NCCSc6ccccc6)c([N+](=O)[O-])c5)cc4)CC3)cc(OCC)c2)c1 [B2Q055-01, 4-[4-[[3-Ethoxy-5-(3-ethoxyphenyl)phenyl]methyl]piperazin-1-yl]-N-[3-nitro-4-(2-phenylsulfanylethylamino)phenyl]sulfonylbenzamide]
ASMS ratio (%) n = 1 (AS-MS, mixture library, Bcl-2): 9.0% | ASMS ratio (%) n = 2 (AS-MS, mixture library, Bcl-2): −8.3%

Compound: CCOc1cncc(-c2ccc(CN3CCN(c4ccc(C(=O)Nc5ccc(OC)cc5)cc4)CC3)cc2C)c1 [B1O048-01, 4-[4-[[4-(5-Ethoxypyridin-3-yl)-3-methylphenyl]methyl]piperazin-1-yl]-N-(4-methoxyphenyl)benzamide]
ASMS ratio (%) n = 1 [1]: −0.3% | ASMS ratio (%) n = 2 [1]: −1.6%

Compound: CCOc1cccc(-c2csc(C(=O)N3CCN(c4ccc(C(=O)NCC(F)(F)F)cc4)CC3)c2)c1 [B1K023-01, 4-[4-[4-(3-Ethoxyphenyl)thiophene-2-carbonyl]piperazin-1-yl]-N-(2,2,2-trifluoroethyl)benzamide]
ASMS ratio (%) n = 1 [2]: 4.3% | ASMS ratio (%) n = 2 [2]: 1.3%

Compound: CCOc1cccc(-c2cc(CN3CCN(c4ccc(C(=O)N(CC)CC)nn4)CC3)cc(OC(F)(F)F)c2)c1 [B4J089-01, 6-[4-[[3-(3-Ethoxyphenyl)-5-(trifluoromethoxy)phenyl]methyl]piperazin-1-yl]-N,N-diethylpyridazine-3-carboxamide]
ASMS ratio (%) n = 1 (AS-MS, mixture library, Bcl-2): 3.9% | ASMS ratio (%) n = 2 (AS-MS, mixture library, Bcl-2): 0.4%

Compound: CCOc1cncc(-c2cc(CN3CCN(c4ccc(C(=O)NS(=O)(=O)c5ccc(NCCSc6ccccc6)c(C(F)(F)F)c5)cc4)CC3)cc(OC(C)C)c2)c1 [B2R058-01, 4-[4-[[3-(5-Ethoxypyridin-3-yl)-5-propan-2-yloxyphenyl]methyl]piperazin-1-yl]-N-[4-(2-phenylsulfanylethylamino)-3-(trifluoromethyl)phenyl]sulfonylbenzamide]
ASMS ratio (%) (n = 1): 13.0% | ASMS ratio (%) (n = 2): 4.8%

Compound: CCOc1cncc(-c2cc(OC)c(CN3CCN(c4ccc(C(=O)NS(=O)(=O)c5ccc(NCCSc6ccccc6)c(C(F)(F)F)c5)cc4)CC3)c(OC)c2)c1 [B2R060-01, 4-[4-[[4-(5-Ethoxypyridin-3-yl)-2,6-dimethoxyphenyl]methyl]piperazin-1-yl]-N-[4-(2-phenylsulfanylethylamino)-3-(trifluoromethyl)phenyl]sulfonylbenzamide]
ASMS ratio (%) (n = 1): 3.9% | ASMS ratio (%) (n = 2): 0.0%

Compound: CCOc1cccc(C#Cc2ccccc2CN2CCN(c3ccc(C(=O)NS(=O)(=O)c4ccc(NCCSc5ccccc5)c([N+](=O)[O-])c4)nn3)CC2)c1 [B2Q095-01]
ASMS ratio (%) n = 1 (AS-MS, mixture library, Bcl-2): 19.9% | ASMS ratio (%) n = 2 (AS-MS, mixture library, Bcl-2): 11.9%
